Laboratory results taken from US20150218654A1, “METHODS FOR PREDICTING MULTIPLE MYELOMA TREATMENT RESPONSE” (INSERM (INSTITUT NATIONAL DE LA SANTÉ ET DE LA RE- CHERCHE …, priority 2012, published 2015).
Several values for one entry are separate records, joined by “and”; a condition that tells them apart may be missing. Identical values can stand only once.

Assays:
Assay type in all cases: cell-based, human
[1] = tested on: primary myeloma cells of patients (CD138+ viable plasma cells); assay: Mononuclear cell culture of patients' tumor samples, count of viable CD138+ myeloma cells by flow cytometry
Experimental: Mononuclear cells from tumor samples of 12 patients with MM were cultured for 4 days in the presence of IL-6 (2 ng/ml) with or without graded decitabine concentrations. At day 4 of culture, the cell count and the viability were determined and the percentage of CD138^+ viable plasma cells was determined by flow cytometry. Black color represents patients with high DM Score (N=6) and white represents patients with low DM Score values (N=6).
Mononuclear cells from tumor samples of 14 patients with MM were cultured for 4 days in the presence of IL-6 (2 ng/ml) with or without graded 5-azacitidine concentrations. At day 4 of culture, the count of viable CD138′ MMCs was determined using flow cytometry. The black columns represent the mean±SD of primary myeloma cell counts (expressed as the percentage of the count without adding 5-azcytidine) of the 7 patients with a low DM Score and the white columns that of the 7 patients with a high DM Score.
Mononuclear cells from tumor samples of 12 patients with MM (agreement of the Center for Biological Resources of Montpellier University Hospital (N° DC-2008-417)) were cultured for 4 days at 2×10^5 cells/ml in RPMI 1640 medium, 10% FCS, 2 ng/ml IL-6, with or without graded concentrations of decitabine. In each culture group, viability and cell counts were assayed and MMCs were stained with an anti-CD138-PE mAb (Immunotech, Marseille, France) as previously described (32).
Primary myeloma cells of 14 patients were cultured with or without graded concentrations of 5-azacitidine and MMC cytotoxicity evaluated using anti-CD138-PE mAb (Immunotech, Marseille, France) as described (Jourdan, et al 1998; Mahtouk, et al 2004; Moreaux, et al 2012).

[2] = Cell viability of HMCLs by trypan blue exclusion; details: human; for viability at 3 days, 0.5 μM: Day 3, mean ± SD; for viability at 7 days, 0.5 μM: Day 7, mean ± SD
Experimental: (§1) The human MM cell lines XG-5, XG-6, XG-7, XG-20 and LP1 were grown in RPMI 1640 supplemented with 10% fetal bovine serum and 2 ng/ml recombinant IL-6. Cells (2×10^5/mL) were treated either with 0.5 μmol/L 5-Aza-2′-deoxycytidine (decitabine) (Sigma, St. Louis, Mo.) for 7 days.

[3] = tested on: HMCLs; assay: Cell viability of HMCLs by trypan blue exclusion; details: five HMCLs, 0.5 μM for 7 days
Experimental: as §1

[4] = LP1 multiple myeloma cells, LP1, 0.5 μM decitabine
[5] = XG-5 multiple myeloma cells, XG-5, 0.5 μM decitabine
[6] = XG-6 multiple myeloma cells, XG-6, 0.5 μM decitabine
[7] = XG-7 multiple myeloma cells, XG-7, 0.5 μM decitabine
[8] = XG-20 multiple myeloma cells, XG-20, 0.5 μM decitabine

Nc1ncn([C@H]2C[C@H](O)[C@@H](CO)O2)c(=O)n1 [decitabine, 5-Aza-2′-deoxycytidine]
Myeloma cell number/culture well, Mean ([1]; 0.125 μM decitabine, day 4, mean of 6 patients with high DM Score): 54391 | Myeloma cell number/culture well, Mean ([1]; 0.125 μM decitabine, day 4, mean of 6 patients with low DM Score): 43748 | Myeloma cell number/culture well ([1]; 0.125 μM decitabine, day 4, single patients with high DM Score): 43320 and 49096 and 40432 and 63536 and 69312 and 60648 | Myeloma cell number/culture well ([1]; 0.125 μM decitabine, day 4, single patients with low DM Score): 26100 and 51984 and 77976 and 54336 and 1066 and 51024 | Myeloma cell number/culture well, Mean ([1]; 0.5 μM decitabine, day 4, mean of 6 patients with high DM Score): 38622 | Myeloma cell number/culture well, Mean ([1]; 0.5 μM decitabine, day 4, mean of 6 patients with low DM Score): 38834 | Myeloma cell number/culture well ([1]; 0.5 μM decitabine, day 4, single patients with high DM Score): 36738 (2×) and 31086 and 28260 and 56520 and 42390 | Myeloma cell number/culture well ([1]; 0.5 μM decitabine, day 4, single patients with low DM Score): 27195 and 45216 and 53694 and 51300 and 870 and 54726 | Myeloma cell number/culture well, Mean ([1]; 2 μM decitabine, day 4, mean of 6 patients with high DM Score): 24024 | Myeloma cell number/culture well, Mean ([1]; 2 μM decitabine, day 4, mean of 6 patients with low DM Score): 30672 | Myeloma cell number/culture well ([1]; 2 μM decitabine, day 4, single patients with high DM Score): 20592 (2×) and 22880 and 18304 and 29744 and 32032 | Myeloma cell number/culture well ([1]; 2 μM decitabine, day 4, single patients with low DM Score): 21028 and 32032 and 22880 and 51230 and 1044 and 55818 | Myeloma cell number/culture well, Mean ([1]; 8 μM decitabine, day 4, mean of 6 patients with high DM Score): 12808 | Myeloma cell number/culture well, Mean ([1]; 8 μM decitabine, day 4, mean of 6 patients with low DM Score): 26080 | Myeloma cell number/culture well ([1]; 8 μM decitabine, day 4, single patients with high DM Score): 5800 and 11600 and 10150 and 18850 and 17400 and 13050 | Myeloma cell number/culture well ([1]; 8 μM decitabine, day 4, single patients with low DM Score): 18265 and 21750 and 14500 and 53486 and 1039 and 47440 | fold higher decitabine sensitivity ([1]; primary MMCs with DM Score above median (−19.7) versus below median, P<0.01): 2.2 fold | viability at 3 days, 0.5 μM [2, 4]: 91 ± 2% | viability at 7 days, 0.5 μM [2, 4]: 86 ± 4% | viability at 3 days, 0.5 μM [2, 5]: 65 ± 5% | viability at 7 days, 0.5 μM [2, 5]: 69 ± 6% | viability at 3 days, 0.5 μM [2, 6]: 90 ± 1% | viability at 7 days, 0.5 μM [2, 6]: 90 ± 1% | viability at 3 days, 0.5 μM [2, 7]: 90 ± 2% | viability at 7 days, 0.5 μM [2, 7]: 85 ± 5% | viability at 3 days, 0.5 μM [2, 8]: 91 ± 3% | viability at 7 days, 0.5 μM [2, 8]: 83 ± 5% | effect on myeloma cell viability [3]: did not affect myeloma cell viability
